Experimental data from patent US20260250290A1 (BRISTOL-MYERS SQUIBB COMPANY, priority 2023, published 2026).
Where “and” joins values, the source holds several entries; their conditions need not be identical. Equal entries are not always repeated.

biological target: T1, full length SGK1 (Homo sapiens, UniProt O00141); test: SGK1 inhibition Assay A (Caliper LabChip electrophoretic separation of fluorescent peptide substrate and phosphorylated product); format: biochemical; conditions: Assay A; 20 μM ATP, 40 min incubation; read-out: SGK1 IC50
T1 construct: 125 μM full length SGK1 (Life Technologies Part #PR7358A); purchased Life Technologies PR7358A
T1 sequence (O00141 1-431): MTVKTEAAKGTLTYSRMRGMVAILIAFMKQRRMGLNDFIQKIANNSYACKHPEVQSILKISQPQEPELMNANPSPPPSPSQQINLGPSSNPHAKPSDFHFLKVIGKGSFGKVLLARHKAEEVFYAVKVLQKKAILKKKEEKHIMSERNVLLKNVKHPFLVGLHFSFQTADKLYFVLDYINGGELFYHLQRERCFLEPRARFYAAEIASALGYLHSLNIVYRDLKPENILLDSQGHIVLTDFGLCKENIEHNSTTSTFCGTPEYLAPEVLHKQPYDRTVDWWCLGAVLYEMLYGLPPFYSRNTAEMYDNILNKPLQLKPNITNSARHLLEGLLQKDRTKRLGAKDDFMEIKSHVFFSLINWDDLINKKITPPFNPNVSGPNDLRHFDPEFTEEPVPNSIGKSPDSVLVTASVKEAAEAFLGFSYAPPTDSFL

Going from COC(=O)N1CC=C(c2cc(N3CCC[C@@H](NC(=O)c4sc(Cl)cc4OC4CCN(C5COC5)CC4)C3)c3c(N)ncnn23)C1 [Example 572, Methyl (R)-3-(4-amino-5-(3-(5-chloro-3-((1-(oxetan-3-yl)piperidin-4-yl)oxy)thiophene-2-carboxamido)piperidin-1-yl)pyrrolo[2,1-f][1,2,4]triazin-7-yl)-2,5-dihydro-1H-pyrrole-1-carboxylate] to CC(=O)N1CC=C(c2cc(N3CCC[C@@H](NC(=O)c4sc(Cl)cc4OC4CCN(C5COC5)CC4)C3)c3c(N)ncnn23)C1 [Example 582], the IC50 rises from 3 nM to 10 nM (3.3-fold). The first is the more potent here.

First: COC(=O)N1CC=C(c2cc(N3CCC[C@@H](NC(=O)c4sc(Cl)cc4OC4CN(C5CCOCC5)C4)C3)c3c(N)ncnn23)C1 [Example 573, Methyl (R)-3-(4-amino-5-(3-(5-chloro-3-((1-(tetrahydro-2H-pyran-4-yl)azetidin-3-yl)oxy)thiophene-2-carboxamido)piperidin-1-yl)pyrrolo[2,1-f][1,2,4]triazin-7-yl)-2,5-dihydro-1H-pyrrole-1-carboxylate]
Second: CC(=O)N1CC=C(c2cc(N3CCC[C@@H](NC(=O)c4sc(Cl)cc4OC4CN(C)C4)C3)c3c(N)ncnn23)C1 [Example 576, (R)-N-(1-(7-(1-acetyl-2,5-dihydro-1H-pyrrol-3-yl)-4-aminopyrrolo[2,1-f][1,2,4]triazin-5-yl)piperidin-3-yl)-5-chloro-3-((1-methylazetidin-3-yl)oxy)thiophene-2-carboxamide]
The IC50 of the first is 10-fold higher: 73 nM for the first, 7 nM for the second.

Going from CC(=O)N1CC=C(c2cc(N3CCC[C@@H](NC(=O)c4sc(Cl)cc4OC4CN(C(C)C)C4)C3)c3c(N)ncnn23)C1 [Example 577, (R)-N-(1-(7-(1-acetyl-2,5-dihydro-1H-pyrrol-3-yl)-4-aminopyrrolo[2,1-f][1,2,4]triazin-5-yl)piperidin-3-yl)-5-chloro-3-((1-isopropylazetidin-3-yl)oxy)thiophene-2-carboxamide] to CC(=O)N1CC=C(c2cc(N3CCC[C@@H](NC(=O)c4sc(Cl)cc4OC4CN(CCO)C4)C3)c3c(N)ncnn23)C1 [Example 578, (R)-N-(1-(7-(1-acetyl-2,5-dihydro-1H-pyrrol-3-yl)-4-aminopyrrolo[2,1-f][1,2,4]triazin-5-yl)piperidin-3-yl)-5-chloro-3-((1-(2-hydroxyethyl)azetidin-3-yl)oxy)thiophene-2-carboxamide], the IC50 rises from 6 nM to 17 nM (2.8-fold). The first is the more potent here.

Compared with CC(=O)N1CC=C(c2cc(N3CCC[C@@H](NC(=O)c4sc(Cl)cc4OC4CCN(C)CC4)C3)c3c(N)ncnn23)C1 [Example 579, (R)-N-(1-(7-(1-acetyl-2,5-dihydro-1H-pyrrol-3-yl)-4-aminopyrrolo[2,1-f][1,2,4]triazin-5-yl)piperidin-3-yl)-5-chloro-3-((1-methylpiperidin-4-yl)oxy)thiophene-2-carboxamide], CC(=O)N1CC=C(c2cc(N3CCC[C@@H](NC(=O)c4sc(Cl)cc4OC4CCCN(C)C4)C3)c3c(N)ncnn23)C1 (stereo partly shown) [Example 597] is 2.5-fold higher in IC50: 4 nM for the first, 10 nM for the second.

CC(=O)N1CC=C(c2cc(N3CCC[C@@H](NC(=O)c4sc(Cl)cc4OC4CC5(CNC5)C4)C3)c3c(N)ncnn23)C1 [Example 580] and CC(=O)N1CC=C(c2cc(N3CCC[C@@H](NC(=O)c4sc(Cl)cc4OC4CC5(C4)CN(C)C5)C3)c3c(N)ncnn23)C1 [Example 581, (R)-N-(1-(7-(1-acetyl-2,5-dihydro-1H-pyrrol-3-yl)-4-aminopyrrolo[2,1-f][1,2,4]triazin-5-yl)piperidin-3-yl)-5-chloro-3-((2-methyl-2-azaspiro[3.3]heptan-6-yl)oxy)thiophene-2-carboxamide] are within 1.5-fold of each other in IC50: 5 nM for the first, 4 nM for the second.

First: Nc1ncnn2c(-c3cncnc3)cc(N3CCC[C@@H](NC(=O)c4sc(Cl)cc4OC4CCN(C5COC5)CC4)C3)c12 [Example 584]
Second: CN1CCC(Oc2cc(Cl)sc2C(=O)N[C@@H]2CCCN(c3cc(-c4cncnc4)n4ncnc(N)c34)C2)CC1 [Example 585, (R)-N-(1-(4-amino-7-(pyrimidin-5-yl)pyrrolo[2,1-f][1,2,4]triazin-5-yl)piperidin-3-yl)-5-chloro-3-((1-methylpiperidin-4-yl)oxy)thiophene-2-carboxamide]
The IC50 of the first is 2.9-fold higher: 26 nM for the first, 9 nM for the second.

First: Nc1ncnn2c(-c3ccnc(C(F)F)c3)cc(N3CCC[C@@H](NC(=O)c4sc(Cl)cc4OC4CCNC4)C3)c12 (stereo partly drawn) [Example 586, N-((R)-1-(4-amino-7-(2-(difluoromethyl)pyridin-4-yl)pyrrolo[2,1-f][1,2,4]triazin-5-yl)piperidin-3-yl)-5-chloro-3-(pyrrolidin-3-yloxy)thiophene-2-carboxamide]
Second: Nc1ncnn2c(-c3ccnc(C(F)F)c3)cc(N3CCC[C@@H](NC(=O)c4sc(Cl)cc4OC4CCNCC4)C3)c12 [Example 588, (R)-N-(1-(4-amino-7-(2(difluoromethyl)pyridin-4-yl)pyrrolo[2,1-f][1,2,4]triazin-5-yl)piperidin-3-yl)-5-chloro-3-(piperidin-4-yloxy)thiophene-2-carboxamide]
The IC50 of the first is 2-fold higher: 4 nM for the first, 2 nM for the second. The second is the more potent here.

CN1CCC(Oc2cc(Cl)sc2C(=O)N[C@@H]2CCCN(c3cc(-c4ccc(C(N)=O)c(F)c4)n4ncnc(N)c34)C2)CC1 [Example 589, (R)-N-(1-(4-amino-7-(4-carbamoyl-3-fluorophenyl)pyrrolo[2,1-f][1,2,4]triazin-5-yl)piperidin-3-yl)-5-chloro-3-((1-methylpiperidin-4-yl)oxy)thiophene-2-carboxamide] and NC(=O)c1ccc(-c2cc(N3CCC[C@@H](NC(=O)c4sc(Cl)cc4OC4CC5(CNC5)C4)C3)c3c(N)ncnn23)cc1F [Example 590, (R)-3-((2-azaspiro[3.3]heptan-6-yl)oxy)-N-(1-(4-amino-7-(4-carbamoyl-3-fluorophenyl)pyrrolo[2,1-f][1,2,4]triazin-5-yl)piperidin-3-yl)-5-chlorothiophene-2-carboxamide] are the same in IC50: 2 nM for the first, 2 nM for the second.

First: N#Cc1ccc(-c2cc(N3CCC[C@@H](NC(=O)c4sc(Cl)cc4OC4CC5(CNC5)C4)C3)c3c(N)ncnn23)cn1 [Example 591]
Second: NC(=O)c1ccc(-c2cc(N3CCC[C@@H](NC(=O)c4sc(Cl)cc4OC4CC5(CNC5)C4)C3)c3c(N)ncnn23)cn1 [Example 592, (R)-5-(5-(3-(3-((2-azaspiro[3.3]heptan-6-yl)oxy)-5-chlorothiophene-2-carboxamido)piperidin-1-yl)-4-aminopyrrolo[2,1-f][1,2,4]triazin-7-yl)picolinamide]
The IC50 of the first is 2-fold higher: 1 nM for the first, 0.5 nM for the second.

CC(=O)N1CC=C(c2cc(N3CCC[C@@H](NC(=O)c4sc(Cl)cc4OC4CC(N(C)C)C4)C3)c3c(N)ncnn23)C1 (stereo partly drawn) [Example 598, (R)-N-(1-(7-(1-acetyl-2,5-dihydro-1H-pyrrol-3-yl)-4-aminopyrrolo[2,1-f][1,2,4]triazin-5-y1)piperidin-3-y1)-5-chloro-3-(3-(dimethylamino)cyclobutoxy)thiophenc-2-carboxamide] and CC(=O)N1CC=C(c2cc(N3CCC[C@@H](NC(=O)c4sc(Cl)cc4OC4CCN(C)CC4F)C3)c3c(N)ncnn23)C1 (stereo partly drawn) [Example 604, N-((R)-1-(7-(1-acetyl-2,5-dihydro-1H-pyrrol-3-y1)-4-aminopyrrolo[2,1-f][1,2,4]triazin-5-yl)piperidin-3-y1)-5-chloro-3-((3-fluoro-1-methylpiperidin-4-yl)oxy)thiophene-2-carboxamide] are within 1.5-fold of each other in IC50: 6 nM for the first, 5 nM for the second.

First: CC(=O)N1CC=C(c2cc(N3CCC[C@@H](NC(=O)c4sc(Cl)cc4OC4CC(N(C)C)C4)C3)c3c(N)ncnn23)C1 (stereo partly drawn) [Example 599, (R)-N-(1-(7-(1-acetyl-2,5-dihydro-1H-pyrrol-3-yl)-4-aminopyrrolo[2,1-f][1,2,4]triazin-5-yl)piperidin-3-y1)-5-chloro-3-(3-(dimethylamino)cyclobutoxy)thiophene-2-carboxamide]
Second: CC(=O)N1CC=C(c2cc(N3CCC[C@@H](NC(=O)c4sc(Cl)cc4OC4CCNCC4F)C3)c3c(N)ncnn23)C1 (stereo partly drawn) [Example 601, N-((R)-1-(7-(1-acetyl-2,5-dihydro-1H-pyrrol-3-yl)-4-aminopyrrolo[2,1-f][1,2,4]triazin-5-yl)piperidin-3-y1)-5-chloro-3-((3-fluoropiperidin-4-yl)oxy)thiophene-2-carboxamide]
The IC50 of the first is 2-fold higher: 8 nM for the first, 4 nM for the second. The second is the more potent here.

Molecule CC(=O)N1CC=C(c2cc(N3CCC[C@@H](NC(=O)c4sc(Cl)cc4OC4CCNCC4F)C3)c3c(N)ncnn23)C1 (stereo partly drawn) [Example 602, N-((R)-1-(7-(1-acetyl-2,5-dihydro-1H-pyrrol-3-yl)-4-aminopyrrolo[2,1-f][1,2,4]triazin-5-y1)piperidin-3-y1)-5-chloro-3-((3-fluoropiperidin-4-yl)oxy)thiophone-2-carboxamide] has an IC50 of 3 nM.
With CC(=O)N1CC=C(c2cc(N3CCC[C@@H](NC(=O)c4sc(Cl)cc4OC4CCNCC4F)C3)c3c(N)ncnn23)C1 (stereo partly drawn) [Example 603, N-((R)-1-(7-(1-acetyl-2,5-dihydro-1H-pyrrol-3-y1)-4-aminopyrrolo[2,1-f][1,2,4]triazin-5-yl)piperidin-3-y1)-5-chloro-3-((3-fluoropiperidin-4-yl)oxy)thiophene~2-carboxamide] the IC50 was 7 nM.

For CN(C)CCOc1cc(Cl)sc1C(=O)N[C@@H]1CCCN(c2cc(-c3cncnc3)n3ncnc(N)c23)C1 [Example 583, (R)-N-(1-(4-amino-7-(pyrimidin-5-yl)pyrrolo[2,1-f][1,2,4]triazin-5-yl)piperidin-3-yl)-5-chloro-3-(2-(dimethylamino)ethoxy)thiophene-2-carboxamide], the IC50 was 16 nM and 26 nM.
